Data: PubChem BioAssay AID1963875 (Molecular Pharmacology Branch, DTP, NCI, 2024)

Test system: KRAS-mutant PDC complex spheroid viability
Assay: Anticancer human tumor 186277-243-T-J2-PDC patient-derived colon adenocarcinoma cell line growth inhibition [KRAS2]
Conditions: for IC50: curve of first compound; for viability, T/C: stronger effect = lower value
Outline: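 KRAS-mutant tumor cells were grown as spheroids with HUVEC endothelial cells and human MSCs as stroma. Targeted agents were tested alone and with KRAS pathway inhibitors. Doses started at or near clinical Cmax, or 10 microM, descending half-log.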

[1] = second compound 0.1 µM, first compound 0.000316 µM
[2] = second compound 0.1 µM, first compound 0.001 µM
[3] = second compound 0.1 µM, first compound 0.00316 µM
[4] = second compound 0.1 µM, first compound 0.01 µM
[5] = second compound 0.1 µM, first compound 0.0316 µM
[6] = second compound 0.316 µM, first compound 0.000316 µM
[7] = second compound 0.316 µM, first compound 0.001 µM
[8] = second compound 0.316 µM, first compound 0.00316 µM
[9] = second compound 0.316 µM, first compound 0.01 µM
[10] = second compound 0.316 µM, first compound 0.0316 µM
[11] = second compound 1 µM, first compound 0.000316 µM
[12] = second compound 1 µM, first compound 0.001 µM
[13] = second compound 1 µM, first compound 0.00316 µM
[14] = second compound 1 µM, first compound 0.01 µM
[15] = second compound 1 µM, first compound 0.0316 µM
[16] = second compound 3.16 µM, first compound 0.000316 µM
[17] = second compound 3.16 µM, first compound 0.001 µM
[18] = second compound 3.16 µM, first compound 0.00316 µM
[19] = second compound 3.16 µM, first compound 0.01 µM
[20] = second compound 3.16 µM, first compound 0.0316 µM
[21] = second compound 10 µM, first compound 0.000316 µM
[22] = second compound 10 µM, first compound 0.001 µM
[23] = second compound 10 µM, first compound 0.00316 µM
[24] = second compound 10 µM, first compound 0.01 µM
[25] = second compound 10 µM, first compound 0.0316 µM
[26] = second compound 0.1 µM, first compound 0.1 µM
[27] = second compound 0.316 µM, first compound 0.1 µM
[28] = second compound 1 µM, first compound 0.1 µM
[29] = second compound 3.16 µM, first compound 0.1 µM
[30] = second compound 10 µM, first compound 0.1 µM
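Throughout, for viability, T/C: viability read after seven days of compound exposure; 100% = DMSO vehicle-treated spheroids so lower means less viable.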

SMILES: CC(=O)Nc1cccc(-n2c(=O)n(C3CC3)c(=O)c3c(Nc4ccc(I)cc4F)n(C)c(=O)c(C)c32)c1 + CC1OCC2(CCN(c3cnc(Sc4ccnc(N)c4Cl)c(N)n3)CC2)C1N
- IC50 (second compound 0.1 µM): 0.368 nM
- IC50 (second compound 0.316 µM): 0.199 nM
- IC50 (second compound 1 µM): 0.128 nM
- IC50 (second compound 3.16 µM): < 0.1 nM
- IC50 (second compound 10 µM): < 0.1 nM
- viability, T/C (second compound 0.1 µM, first compound 0.0001 µM): 116%
- viability, T/C [1]: 56.1%
- viability, T/C [2]: 9.68%
- viability, T/C [3]: 5%
- viability, T/C [4]: 1.6%
- viability, T/C [5]: 1.06%
- viability, T/C (second compound 0.316 µM, first compound 0.0001 µM): 86.3%
- viability, T/C [6]: 25.9%
- viability, T/C [7]: 5.13%
- viability, T/C [8]: 3.78%
- viability, T/C [9]: 3.34%
- viability, T/C [10]: 0.76%
- viability, T/C (second compound 1 µM, first compound 0.0001 µM): 60.8%
- viability, T/C [11]: 10.9%
- viability, T/C [12]: 4.8%
- viability, T/C [13]: 1.82%
- viability, T/C [14]: 0.88%
- viability, T/C [15]: 0.76%
- viability, T/C (second compound 3.16 µM, first compound 0.0001 µM): 24.4%
- viability, T/C [16]: 5.11%
- viability, T/C [17]: 2.57%
- viability, T/C [18]: 1.18%
- viability, T/C [19]: 0.59%
- viability, T/C [20]: 0.6%
- viability, T/C (second compound 10 µM, first compound 0.0001 µM): 10%
- viability, T/C [21]: 3.24%
- viability, T/C [22]: 1.99%
- viability, T/C [23]: 0.72%
- viability, T/C [24]: 0.68%
- viability, T/C [25]: 0.55%

SMILES: CC(C)n1nc(-c2ccc3oc(N)nc3c2)c2c(N)ncnc21 + CC1OCC2(CCN(c3cnc(Sc4ccnc(N)c4Cl)c(N)n3)CC2)C1N
- IC50 (second compound 0.1 µM): 11.9 nM
- IC50 (second compound 0.316 µM): 12.7 nM
- IC50 (second compound 1 µM): 8.7 nM
- IC50 (second compound 3.16 µM): 4.98 nM
- IC50 (second compound 10 µM): 1.26 nM
- viability, T/C [1]: 107%
- viability, T/C [2]: 101%
- viability, T/C [3]: 85.8%
- viability, T/C [4]: 52.1%
- viability, T/C [5]: 30%
- viability, T/C [26]: 16.1%
- viability, T/C [6]: 113%
- viability, T/C [7]: 100%
- viability, T/C [8]: 76.8%
- viability, T/C [9]: 57%
- viability, T/C [10]: 30.6%
- viability, T/C [27]: 15.3%
- viability, T/C [11]: 103%
- viability, T/C [12]: 89.7%
- viability, T/C [13]: 67.5%
- viability, T/C [14]: 49.9%
- viability, T/C [15]: 25.3%
- viability, T/C [28]: 12.9%
- viability, T/C [16]: 83.8%
- viability, T/C [17]: 73.4%
- viability, T/C [18]: 55.9%
- viability, T/C [19]: 39.5%
- viability, T/C [20]: 22.6%
- viability, T/C [29]: 7.43%
- viability, T/C [21]: 57.4%
- viability, T/C [22]: 58.8%
- viability, T/C [23]: 33.7%
- viability, T/C [24]: 25.3%
- viability, T/C [25]: 13.8%
- viability, T/C [30]: 5.7%

SMILES: CC1(C)CCC(CN2CCN(c3ccc(C(=O)NS(=O)(=O)c4ccc(NCC5CCOCC5)c([N+](=O)[O-])c4)c(Oc4cnc5[nH]ccc5c4)c3)CC2)=C(c2ccc(Cl)cc2)C1 + CC1OCC2(CCN(c3cnc(Sc4ccnc(N)c4Cl)c(N)n3)CC2)C1N
- IC50 (second compound 0.1 µM): 2270 nM
- IC50 (second compound 0.316 µM): 2350 nM
- IC50 (second compound 1 µM): 2130 nM
- IC50 (second compound 3.16 µM): 1750 nM
- IC50 (second compound 10 µM): 1550 nM
- viability, T/C [5]: 103%
- viability, T/C [26]: 115%
- viability, T/C (second compound 0.1 µM, first compound 0.316 µM): 127%
- viability, T/C (second compound 0.1 µM, first compound 1 µM): 120%
- viability, T/C (second compound 0.1 µM, first compound 3.16 µM): 23.1%
- viability, T/C (second compound 0.1 µM, first compound 10 µM): 0.76%
- viability, T/C [10]: 128%
- viability, T/C [27]: 136%
- viability, T/C (second compound 0.316 µM, first compound 0.316 µM): 130%
- viability, T/C (second compound 0.316 µM, first compound 1 µM): 130%
- viability, T/C (second compound 0.316 µM, first compound 3.16 µM): 22.1%
- viability, T/C (second compound 0.316 µM, first compound 10 µM): 0.38%
- viability, T/C [15]: 140%
- viability, T/C [28]: 115%
- viability, T/C (second compound 1 µM, first compound 0.316 µM): 113%
- viability, T/C (second compound 1 µM, first compound 1 µM): 116%
- viability, T/C (second compound 1 µM, first compound 3.16 µM): 16%
- viability, T/C (second compound 1 µM, first compound 10 µM): 0.34%
- viability, T/C [20]: 98.9%
- viability, T/C [29]: 112%
- viability, T/C (second compound 3.16 µM, first compound 0.316 µM): 100%
- viability, T/C (second compound 3.16 µM, first compound 1 µM): 93.8%
- viability, T/C (second compound 3.16 µM, first compound 3.16 µM): 3.38%
- viability, T/C (second compound 3.16 µM, first compound 10 µM): 0.22%
- viability, T/C [25]: 80.1%
- viability, T/C [30]: 82.7%
- viability, T/C (second compound 10 µM, first compound 0.316 µM): 87.7%
- viability, T/C (second compound 10 µM, first compound 1 µM): 79%
- viability, T/C (second compound 10 µM, first compound 3.16 µM): 2.4%
- viability, T/C (second compound 10 µM, first compound 10 µM): 0.21%
